# From patent US9951060B2, “2-acylaminothiazole derivative or salt thereof” (ASTELLAS PHARMA INC., priority 2014, dated 2018)
# What was measured:
# [1] = molecular target: human muscarinic M3 receptor (Homo sapiens, UniProt P20309); assay: Test Example 1: muscarinic M3 receptor positive allosteric modulator activity (shift of carbachol concentration-response curve, intracellular Ca2+, FLIPR); conditions: carbachol EC50 without / with test substance, CHO-K1 cells expressing human M3
# From the text: Test Example 1: Evaluation of Muscarinic M3 Receptor Positive Allosteric Modulator Activity
# a) Construction of Vector Expressing Human Muscarinic M3 Receptor
# A human muscarinic M3 receptor gene (GenBank Accession No.: NM_000740.2) was introduced into an expression vector pcDNA3.1™ (Life Technologies).
# b) Construction of Cells Stably Expressing Human Muscarinic M3 Receptor
# A vector expressing a human muscarinic M3 receptor was introduced into a CHO—K1 cell (ATCC No.: CCL-61). The introduction was carried out according to the attached instructions, using a transfection reagent, Lipofectoamine (registered trademark) 2000 Reagent (Life Technologies). The cells were incubated in an alpha Modified Eagle Minimum Essential Medium (α-MEM) including 2 mM glutamine, 10% fetal bovine serum, and 2.0 mg/mL Geneticin (registered trademark) (Life Technologies) for 4 weeks to acquire a drug-resistant clone.
# c) Measurement of Intracellular Ca^2+ Concentration
# The cells obtained in b) above were suspended in an α-MEM including 2 mM glutamine, 10% fetal bovine serum, and 0.2 mg/mL Geneticin (registered trademark) to the amount from 1.2 to 1.5×10^4 cells/well the day before the experiment, dispensed into a 384-well plate (Model No. 355962, BD Biosciences), and incubated overnight at 37° C. and 5% CO2. The medium was replaced with a loading buffer (an assay buffer (Hank's balanced salt solution (HBSS), 1 g/L BSA, 20 mM HEPES (pH 7.5), and 2.5 mM probenecid), including 3.1 μM Fluo 4-AM (Dojindo Laboratories) and incubated for about 2 hours at room temperature. Thereafter, the cells were washed with a plate washer ELx405™ (BIO-TEK Instrument, Inc.) set with the assay buffer, and set in an intracellular Ca^2+ concentration measuring system (FLIPR^tetra (registered trademark), Molecular Device Co.). The test substances (final concentration of 1 μM or 10 μM) and carbachol (Sigma, final concentration of 0.0024 nM to 10 μM) which had each been dissolved in the assay buffer in advance were set in a FLIPR^tetra (registered trademark). The test substances were added to the cells in the device and after about 5 minutes, carbachol was added to the cells. An increase rate of the intracellular Ca^2+ concentration by carbachol was measured (excitement wavelength of 470 nm to 495 nm and a fluorescence wavelength of 515 nm to 575 nm).
# For the muscarinic M3 receptor-positive allosteric modulator activity, a shift toward a lower concentration side of a carbachol concentration-response curve by the test substance was used as an index. […] For example, when the EC50 value of carbachol in the absence of the test substance was 0.1 μM and the EC50 value of carbachol in the presence of the test substance was 0.01 μM, the value of the muscarinic M3 receptor-positive allosteric modulator activity becomes 10, showing that the test substance causes a 10-fold shift in the EC50 value toward to the low concentration side.
# [2] = molecular target: T1, human c-Mpl-introduced Ba/F3 cell (Homo sapiens, UniProt P40238); assay: Test Example 2: human c-Mpl-introduced Ba/F3 cell proliferative activity; assay type: cell-based; conditions: concentration exhibiting 30% proliferation; 100% = positive control (Example 315 of Patent Document 1) at 1 μM
# T1 construct: expressed in transfected cells
# T1 sequence (P40238 26-635): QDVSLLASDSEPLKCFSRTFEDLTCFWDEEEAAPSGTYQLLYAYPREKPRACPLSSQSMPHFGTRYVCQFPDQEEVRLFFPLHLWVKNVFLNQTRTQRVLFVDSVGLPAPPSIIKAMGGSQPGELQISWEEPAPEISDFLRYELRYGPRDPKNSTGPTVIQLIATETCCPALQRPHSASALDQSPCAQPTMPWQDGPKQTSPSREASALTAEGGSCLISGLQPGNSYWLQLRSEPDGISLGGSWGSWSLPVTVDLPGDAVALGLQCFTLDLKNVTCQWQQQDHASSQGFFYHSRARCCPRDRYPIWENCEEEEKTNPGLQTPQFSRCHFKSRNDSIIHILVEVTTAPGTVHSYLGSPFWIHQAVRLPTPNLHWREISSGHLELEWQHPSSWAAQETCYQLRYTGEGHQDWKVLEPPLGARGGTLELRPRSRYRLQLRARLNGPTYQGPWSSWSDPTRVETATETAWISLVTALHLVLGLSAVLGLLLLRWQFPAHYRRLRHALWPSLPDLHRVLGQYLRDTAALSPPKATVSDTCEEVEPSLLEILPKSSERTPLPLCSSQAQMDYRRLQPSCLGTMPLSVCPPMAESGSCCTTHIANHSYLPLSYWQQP
# Procedure, shortened: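 Ba/F3 cells stably expressing human c-Mpl seeded at 1×10^4 cells/well with test substance (100 nM to 10 μM final) in RPMI-1640/10% FBS, overnight at 37 °C. Cell number by WST-type kit absorbance at 450 nm after ~5 h; proliferation % relative to untreated (0%) and reference agonist at 1 μM (100%).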
# Chain of human muscarinic M3 receptor (P20309 whole entry): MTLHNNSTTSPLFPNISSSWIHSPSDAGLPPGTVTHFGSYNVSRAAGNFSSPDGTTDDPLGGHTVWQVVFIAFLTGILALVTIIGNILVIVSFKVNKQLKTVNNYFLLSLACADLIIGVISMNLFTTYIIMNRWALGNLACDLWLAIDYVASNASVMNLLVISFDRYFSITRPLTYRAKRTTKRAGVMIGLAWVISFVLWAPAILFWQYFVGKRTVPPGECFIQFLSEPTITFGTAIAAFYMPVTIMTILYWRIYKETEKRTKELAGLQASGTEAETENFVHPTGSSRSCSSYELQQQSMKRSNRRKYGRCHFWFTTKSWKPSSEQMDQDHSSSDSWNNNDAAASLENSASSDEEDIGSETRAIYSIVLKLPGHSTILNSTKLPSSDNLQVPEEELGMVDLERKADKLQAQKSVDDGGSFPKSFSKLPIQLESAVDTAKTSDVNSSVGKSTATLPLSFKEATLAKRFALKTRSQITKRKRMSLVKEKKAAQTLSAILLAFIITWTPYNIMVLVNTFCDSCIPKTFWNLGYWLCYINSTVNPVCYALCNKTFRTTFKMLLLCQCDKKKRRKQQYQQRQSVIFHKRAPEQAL
smiles,measurement,setting,value
CCC[C@@H]1CCCN1Cc1sc(NC(=O)c2cnc(N3CCN(CCC(=O)[O-])CC3)cn2)nc1-c1cccc(C(F)(F)F)c1.[Na+] [Example 124],"muscarinic M3 receptor-positive allosteric modulator activity, 1 μM (-fold shift)",[1]; test substance 1 μM,28 -fold shift
same,"muscarinic M3 receptor-positive allosteric modulator activity, 10 μM (-fold shift)",[1]; test substance 10 μM,101 -fold shift
same,human c-Mpl-introduced Ba/F3 cell proliferative activity EC30,[2],>10 µM
